Results taken from patent US9815794B2, “Inhibition of bacterial biofilms and microbial growth with imidazole derivatives” (North Carolina State University, priority 2011, dated 2017).
In brackets after ≈: the same amount, converted by molar mass.

Experiments:
E. coli [1] = test: Biofilm formation inhibition, crystal violet reporter assay; assay type: cell-based; conditions: Escherichia coli
Protocol: (§1) The ability of each member of the pilot library to inhibit either E. coli or MDRAB biofilm formation at 100 μM was assessed using a crystal violet reporter assay (O'Toole et al., Mol. Microbiol., 1998, 30: 295-304).
(§2) This is typically indicative of biofilm inhibition via a traditional microbicidal mechanism instead of a mechanism that modulates biofilm formation through non-microbicidal mechanisms. […] At this concentration, a 97% reduction in bacterial growth was observed.

MDRAB = test: as above; assay type: cell-based
Protocol: as §1

E. coli [2] = test: Growth curve analysis (A600); assay type: cell-based; conditions: at IC50 concentration (13 μM)
Excerpt: as §2

VRE = test: Broth microdilution MIC; assay type: cell-based, vancomycin resistant Enterococcus faecium; conditions: Enterococcus
Protocol: Once it was determined that this specific 4,5-disubstitution pattern imparted microbicidal activity onto the 2-AI framework, this activity was quantified by measuring the MIC of each derivative against a variety of representative pathogenic bacterial strains using the microdilution protocol (CSLI, Performance Standards for Antimicrobial Suceptibility Testing; Nineteenth Informational Supplement, Clinical and Laboratory Standards Institute, Wayne, Pa., 2009). E. coli, MDRAB, P. aeruginosa, MRSA, MSSA, S. epidermidis and VRE were used for initial evaluation. From this screen, compound 15 was determined to be the lead compound and had MIC values (μg/mL) of 2, 2, 1, 0.5, 0.25, and 1 against E. coli, MDRAB, MRSA, VRE, S. Epidermidis and MSSA.
S. aureus (ATCC #29213), S. epidermidis (ATCC #29886), MRSA (ATCC # BAA-44), MDRAB (ATCC # BAA-1605), vancomycin resistant Enterococcus faecium (VRE) (ATCC #51559) and E. coli (ATCC #35695) were obtained from the ATCC. Mechanically difibrinated sheep blood (DSB100) was obtained from Hemostat Labs. Mueller-Hinton medium was purchased from Fluka (#70192).
Broth Microdilution Method for MIC Determination.

Row | SMILES | inhibition at 100 µM (E. coli [1]; 100 μM) | IC50 (E. coli [1]; dose-response) | inhibition at 100 µM (MDRAB) | reduction in bacterial growth (E. coli [2]) | MIC (VRE)
1 | CCCCCc1[nH]c(N)nc1CCCCCc1ccccc1 [Compound 15, 5-pentyl-4-(5-phenylpentyl)-1H-imidazol-2-amine] | 83 ± 0.8% | 13 µM | 80.3 ± 8.1% | 97% | 0.5 µg/mL (≈ 1.67 µM)
2 | CCCCCCc1[nH]c(N)nc1CCCCCc1ccccc1 [Compound 19, 5-hexyl-4-(5-phenylpentyl)-1H-imidazol-2-amine] |  |  |  |  | 0.5 µg/mL (≈ 1.59 µM)
